Assay results from US9381193B2, “Contraceptive methods and compositions” (WASHINGTON UNIVERSITY, priority 2011, dated 2016).

Experiments:
[1] = system: ICR female mice; assay: Intrauterine DHEA or 6-AN pellet and pregnancy outcome; assay type: in vivo, mouse
Protocol: ICR female mice had either placebo (n=26), DHEA (1.5 mg/60 days)(n=20), or 6-AN pellets (150, 15, 1.5 mcg/60 days)(n=24) placed into the uterine horn after index delivery. Females were then mated and litter size was measured over the following 120 days post pellet. Mice were housed according to the Institutional Animal Care and use Committee and NIH guidelines. Day to first litter, number of litters, number of pups, average pups/litter were recorded. Serum DHEA levels were quantified (Alpco, Salem, N.H.). All pellets (placebo, DHEA, 6-AN) were custom-formulated (Innovative Research, Inc).

[2] = system: human primary ESCs; assay: In vitro decidualization of human primary ESCs (decidualization marker mRNA); assay type: cell-based
Source text: (§1) In order to confirm that this is not a side effect of ESC immortalization with telomerase overexpression in this human cell line, the effect of DHEA on decidualization of primary ESC cultures from mouse and human uteri was also investigated. Murine ESCs were isolated from the gravid uterus at 4 days post coitus and cultured in vitro for 3 days to induce decidualization as described in the Methods. […] The human primary ESCs were isolated from uteri following hysterectomy for benign disease as outlined in the Methods and cultured in decidualization media for 9 days.
Control samples received 0.1% ethanol vehicle control.

[3] = system: ESC-T cells; assay: EdU incorporation proliferation assay; assay type: cell-based, human
Source text: Other groups have shown that DHEA has anti-proliferative effects in a number of cell-lines and tissues. Thus, it was hypothesized that perhaps the PPP inhibitors prevent the proliferation of ESC-Ts and that this is an additional effect, independent of their role in decidualization inhibition. In a human uterus the stromal cells go through a cyclical oscillation between proliferation and differentiation, determined by the hormonal milieu. ESC-Ts in vitro remain in the proliferative state until they are exposed to differentiation media, which causes the cells to halt cell division and enter differentiation. Proliferation of ESC-T cells were monitored by EdU incorporation in vitro, which indicates entry into the S-phase of the cell cycle, in the absence of the differentiation hormones.
Following 60 hr of the treatment indicated in the experiment, EdU was added to the culture medium at a concentration of […]. Cells were harvested and stained using the Click-iT EdU Flow Cytometry Kit (Invitrogen). Quantitative data were collected using a BD FACSCalibur flow cytometer (Becton Dickinson, San Jose, Calif.) and analyzed with FlowJo software (TreeSTar, Inc., Ashland, Oreg.). For confocal microscopy, the cells were stained on coverslips using the same protocol. Nuclei were counterstained with TOPRO-iodide (Molecular probes) at a 1:500 dilution. Cells were mounted on slides using Vectashield (Vector Labs) and visualized using a Nikon C1 microscope.

[4] = system: hESC-Ts; assay: Radiolabeled glucose flux (1-14C, 6-14C, 5-3H-glucose) in hESC-Ts; assay type: cell-based, human
Protocol: For these experiments, hESCs immortalized via overexpression of telomerase (hESC-Ts) were used. […] The response of these cells to PPP inhibitors was also tested in order to confirm their similar dependence on the pathway for differentiation. In order to determine glucose flux through the various metabolic pathways in ESCs the metabolic fates of 1-^14C—, 6-^14C—, and 5-^3H-glucose was followed. hESC-Ts were incubated for 3 h with one of the radiolabled glucoses and production of ^14CO2 or ^3H2O was compared between the four treatment groups, control, decidualized, and decidualized with 2 μM or 5 μM 6-AN (FIG. 6). […] This was an indication that the flux through the TCA cycle or PPP was decreased in the inhibitor-treated ESCs. […] Therefore, inhibiting G6PD with 6-AN has no effect on TCA flux, but directly lowers the metabolism of glucose through PPP. The ratio of 1-C:6-C, which summarizes the relative preference of the PPP, can then be seen as decreasing in the presence of the inhibitor 6-AN.
This indicates an increase in the amount of glucose entering glycolysis without continuing into the TCA cycle, possibly being converted into lactate.

[5] = system: murine ESCs; assay: In vitro decidualization of primary murine ESCs (Prp mRNA); assay type: cell-based, mouse; settings: 3 days in vitro culture
Source text: as §1
For in vitro decidualization of ESCs, female mice were sacrificed at 4dpc. Pregnancy was confirmed by flushing dissected uterine horns and ostia with HBSS and observing for presence of blastocysts. Uteri confirmed for pregnancy were cut into 1 mm^3 pieces and incubated in Dulbecco's modified Eagle's Medium:F12 medium (DMEM:F12) without phenol red supplemented with 2 g/liter Collagenase Type I (Gibco) for 60-90 min at 37° C. Tissues were vortexed every 15 min during incubation. Following incubation, the solution was passed through a 40 μm sieve (BD Falcon) and centrifuged at 1100 rpm for 5 min. […]

[6] = system: ESC-T cells; assay: In vitro decidualization of immortalized human ESC-T cells (decidualization marker mRNA, morphology); assay type: cell-based
Source text: Decidualization in human cells was monitored by measuring the mRNA expression of two decidualization markers, PRL and IGFBP1.
This NADP+ analog inhibits two enzymes in the PPP, G6PD and 6GPDH, which utilize NADP+ and convert it into NADPH.
Two major results of the PPP are the production of ribose 5-phosphate and regeneration of NADPH. Production of ribose 5-phosphate is a central component in the de novo synthesis of ribonucleosides (RNs) and deoxyribonucleosides (DRNs). […] To address this question, ESC-T cultures were used and the differentiation media was supplemented with RNs and DRNs during treatment with PPP inhibitors.
(§2) Endometrial tissue was obtained from human uteri after hysterectomy conducted for benign disease or from endometrial biopsies. Informed consent was obtained from each patient before surgery and protocols were approved by the Human Research Protection Office of Washington University (HRPO#07-0949). Tissues were placed in HBSS and transported to the laboratory. hESCs were isolated and cultured as previously described. In vitro decidualization was performed as previously described with several changes. Cells were seeded in 6-well plates at 2×10^5 cells/well in DMEM:F12 without phenol red, supplemented with 2% heat-inactivated charcoal dextran-stripped calf serum (HyClone) and 50 μg/ml penicillin/streptomycin (Cambrex Bio Science). Cells were treated with 1 μM medroxyprogesterone-17-acetate (MPA) (Sigma) and 0.5 mM N^6, 2′-O-Dibutyryladenosine 3′,5′-cyclic monophosphate sodium salt (db-cAMP) (Sigma). Control samples received 0.1% ethanol vehicle control.
Human immortalized ESC (ESC telomerase immortalized, ESC-T), were decidualized in vitro in the presence of 0, 2.5 or 5 mM GlcN for 9 days.

[7] = system: human immortalized ESCs; settings: 1 μM and 1.5 μM IA; 5-3H-glucose for four hours
Protocol: In order to confirm inhibition of glycolysis, human immortalized ESCs were incubated in the presence of 5-^3H-glucose for four hours and the amount of ^3H2O production (H2O produced from the 5th hydrogen of glucose is a product of glycolysis) in ESCs exposed to different concentrations of IA was measured (FIG. 2b).

[8] = system: human ESCs
Protocol: as §2

[9] = system: ICR female mice; assay: Intrauterine time-release GlcN pellet and pups per litter; assay type: in vivo, mouse; settings: time-release GlcN pellet (15-1500 μg) in one uterine horn; 60-day period
Protocol: FIG. 25A-B graphically depicts decreased birth rate by glucosamine in ICR mice. 6 weeks old ICR female mice were implanted with a control or GlcN (15-1500 μg) pellet on one uterine horn and (A) with or (B) without the hysterectomy on the other uterine horn. Pups per litter in pellet implanted female mice crossed with males were recorded. **, P<0.01.
(§3) Human immortalized ESC (ESC telomerase immortalized, ESC-T), were decidualized in vitro in the presence of 0, 2.5 or 5 mM GlcN for 9 days. […] Thus, it was concluded that perturbation of the PPP activity by GlcN might lead to the failure of ESC decidualization and thus possibly be one of the first non-hormonal inhibitors of decidualization. Finally, in vivo evidence is provided that female mice with a time-release GlcN pellet (15-1500 μg) implanted in one uterine horn, delivered fewer live pups per litter over a 60-day period than those with control pellet implantation (8.25 vs 4.23 pups/litter; FIG. 25).

[10] = system: ESC-T; assay: Viability of ESC-T with GlcN (MTT assay and flow cytometry); assay type: cell-based, human; settings: 0, 2.5 or 5 mM GlcN for 9 days
Protocol: as §3

[11] = molecular target: T1, G6PDH (Homo sapiens, UniProt P11413); assay: G6PDH activity in decidualized ESC-T cells exposed to GlcN; assay type: cell-based
T1 construct: endogenous in cells; host or cells: human telomerase-immortalized endometrial stromal cells (ESC-T)
T1 sequence (P11413 whole entry): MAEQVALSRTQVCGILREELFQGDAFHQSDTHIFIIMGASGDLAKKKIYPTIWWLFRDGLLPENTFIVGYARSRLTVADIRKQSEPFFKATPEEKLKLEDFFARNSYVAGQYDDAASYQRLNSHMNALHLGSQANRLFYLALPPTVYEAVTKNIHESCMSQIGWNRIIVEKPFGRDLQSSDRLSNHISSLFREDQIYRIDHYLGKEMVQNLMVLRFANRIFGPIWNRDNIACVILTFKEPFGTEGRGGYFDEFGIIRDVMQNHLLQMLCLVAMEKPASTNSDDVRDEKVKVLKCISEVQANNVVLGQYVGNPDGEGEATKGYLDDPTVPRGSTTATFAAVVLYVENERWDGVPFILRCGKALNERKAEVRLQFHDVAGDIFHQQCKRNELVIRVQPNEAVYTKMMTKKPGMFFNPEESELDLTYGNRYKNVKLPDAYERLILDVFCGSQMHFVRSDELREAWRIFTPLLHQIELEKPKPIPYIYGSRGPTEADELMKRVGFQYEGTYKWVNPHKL
Protocol: as §3

[12] = decidualized cells with 2 μM or 5 μM 6-AN, 3 h

NC(=O)c1ccc(N)nc1 [6-AN, 6-aminonicotinamide] was tested, and the “Reduction in average pup/litter size” value ([1]; 6-AN pellet, not significant from control (p=0.4)) was 37.7%, the “Average time to first litter” value ([1]; intrauterine pellet: DHEA 1.5 mg/60 days, 6-AN 150, 15, 1.5 mcg/60 days, controls 27 days) was 34 days and the “Expression of PRL and IGFBP1” value ([2]; 9 days in decidualization media) was “decreased”. For the same compound, the “EdU-positive nuclei vs DMSO control” value ([3]; 100 μM DHEA, 50 μM 6AN) was “drastic decrease”, the “Proliferation by EdU geometric mean fluorescence intensity (flow cytometry)” value ([3]; 4 independent experiments) was “decreases proliferation of ESC-Ts in a concentration dependent manner” and the “Metabolism of glucose labeled at the C-1 position (14CO2)” value [4, 12] was “lower in the decidualized cells exposed to 6-AN in a concentration dependent manner”. For the same compound, the “Metabolism of the 6-C labeled glucose (14CO2)” value [4, 12] was “not affected”, the “Glycolytic flux of 5-3H labeled glucose” value ([4]; decidualized cells with 5 μM 6-AN) was “returned almost to the same levels as the control” and the “Ratio of 1-C:6-C (relative preference of the PPP)” value ([4]; presence of 6-AN) was “decreasing”. For the same compound, the “Prp mRNA expression” value [5] was “decreased Prp expression” and the “Expression of PRL and IGFBP” value ([6]; 10 μM 6AN, day 3 to day 9 in culture) was “inhibited”.
In the case of O=C(O)CI [IA, Iodoacetate], the “Reduction of flux of glucose through glycolysis” value [7] is reported as 40%, the “Decidualization assessed by Prl marker expression” value ([8]; IA concentrations below the toxic threshold) is reported as “not affected” and the “Concentration inducing cell death” value ([8]; within 24 hr of administration) is reported as no less than 2000 nM.
For N[C@H]1C(O)O[C@H](CO)[C@@H](O)[C@@H]1O (some centres unmarked) [GlcN, glucosamine], the “Live pups per litter” value [9] was 4.23 pups/litter, the “mRNA expression of prolactin, somatostatin, interleukin-15, left-right determination factor 2, tissue inhibitor of metalloproteinase 3” value ([2]; GlcN, day 9 of culture) was “significantly lower expression levels” and the Viability / proliferation [10] was “viability similar to control cells”. For the same compound, the “G6PDH activity vs control cells” value [11] was “significantly lower”, the “mRNA expression of prolactin, somatostatin, interleukin-15, left-right determination factor 2, tissue inhibitor of metalloproteinase 3” value ([6]; GlcN 2.5 or 5 mM, quantitative RT-PCR) was “significantly lower expression levels” and the “Expression levels of PRL and SMST over time” value ([6]; GlcN, day 3 through day 9) was “decreased the expression levels”.
